Data taken from patent US8575376B2, “Steroide anionic compounds, method of their production, usage and pharmaceutical preparation involving them” (Ustav Organicke Chemie A Biochemie Akademie Ved Ceske …, priority 2009, dated 2013).

What was measured:
rats [1] = experiment: AAPA task after MK-801 (animal model of schizophrenia); assay type: in vivo, rat; conditions: for locomotion activity in AAPA (total distance): vs control
Description: The effect of compound from example 9 application on changes in behavior and locomotor activity in animal model of schizophrenia was monitored. Schizophrenia-like behavior in rats was induced by dizocilpine (MK-801) administration. […] was administered in doses of 0.001 mg/kg, 0.01 mg/kg, 0.1 mg/kg and 10 mg/kg. Spatial orientation and cognitive function of rats were assessed in active allothetic place avoidance task (AAPA).
Schizophrenia-like behaviour in rats was induced by administration of dizocilpine (MK-801). Spatial navigation and cognitive functions of rats were assessed in active alothetic place avoidance task (AAPA). In addition, this task allows simultaneous assessment of potential differences in locomotory activity. The AAPA task requires rats moving on a continuously rotating (1 rpm) smooth metallic circular arena to avoid an unmarked place defined in the coordinates of the experimental room. The avoidance is reinforced by a mild electric foot-shock administered automatically upon entering the to-be avoided place.
The AAPA task is highly dependent on hippocampal function, since even a unilateral inactivation of thstructure hippocampus impairs this behaviour. Animals have to actively and repeatedly move away from the to-be-avoided place otherwise they are brought there by the arena rotation. Each AAPA session lasts 20 min and 4 sessions were conducted over 4 consecutive days.
Rats received 0.1 mg/kg MK-801 alone or co-administered with the compound from example 9 (dissolved in β-cyclodextrine) in doses of 0.001 mg/kg, 0.01 mg/kg, 0.1 mg/kg, and 10 mg/kg. Control animals received saline. […] It is for a common animal model of schizophrenia-like behaviour.
The results are shown in FIGS. 21-23, where means and standard errors of the mean (S.E.M.) are represented for individual sessions. Statistic analysis was for better clarity stated always for the last session, when an asymptotic level of performance in control animals was reached.

Neuropathic pain model = assay type: in vivo; conditions: no data shown
rats [2] = experiment: Histochemical analysis (FluoroJadeB) after bilateral NMDA-induced hippocampal lesion; assay type: in vivo, rat; conditions: 1 mg/kg i.p.
Description: Animals were divided into four groups consisting of two series. First group of animals received an application of NMDA (intrahipocampally, i.h.) and compound from Example 9 (1 mg/kg, i.p.). Second group received NMDA i.h. and cyclodextrine i.p., third group obtained saline i.h. and cyclodextrin i.p. Forth group was applied with sterile saline i.h. and compound from Example 9 at a dose 1 mg/kg, i.p. Six animals from each group was sacrificed and perfused at intervals of 1-4 days after experimental manipulation.
Animals were deeply anesthetized by isoflurane (3.5%, driven by air) and fixed in the stereotaxic apparatus. Small drills were made in the skull and subsequently microinjection of NMDA (1 μl, […] NMDA in saline; pH adjusted to 7.2 by calcium dihydrogenphosphate) into both hippocampi was pursued. Coordinates of application (AP=4, L=2.5, DV=4) were localized with stereotaxic atlas (Paxinos and Watson, 2005) and verified in histological controls. Rats were again placed in soft recovery boxes after surgery and carefully monitored after surgery.
Application of compound from Example 9 was done according to experimental scheme either 30 min prior to and after NMDA application (in first series of experiments) or 30 min after lesion in the second series. Animals were perfused on days 1-4 after lesion, their brains were fixed with paraformaldehyde and sacharose solution. The brains were subsequently frozen to −70° C., and thin brain slices were prepared on cryomicrotome, stained and analyzed under light microscope.

rats [3] = experiment: Elevated plus maze (anxiety); assay type: in vivo, rat
Description: The effect of i.p. administration of compound from example 9 in doses of 0.001, 0.01, and 10 mg/kg on behaviour in elevated plus maze was evaluated. The number of entrances into open arms and the total time spent in open arms were assessed.
The apparatus consisted of two opposite open arms (45 cm×10 cm) crossed at right angles with two opposite arms of the same size enclosed by walls 40 cm high, except for the central part where the arms crossed. The whole apparatus was elevated 50 cm above the floor.

rats [4] = experiment: Footshock-induced ultrasonic vocalization (anxiety); assay type: in vivo, rat
Description: Effect of compound from example 9 application at doses of 0.001 mg/kg, 0.01 mg/kg and 10 mg/kg on ultrasonic vocalization after exposure to stressful situation (foot-shock) as a measure of anxiety. Under conditions of stress and pain, rats are known to emit ultrasonic distress calls at a frequency of about 22 kHz. On the first day, rats were placed into the shock chamber individually and after 30 s of habituation, they received 6 inescapable electric foot-shocks (1 shock/1 minute, 1 mA) of 10 seconds duration. The procedure was repeated 24 hours later, but this time, the animals received only one 10-second shock. Afterwards, the rats were injected i.p. with vehicle (b-cyclodextrine) or the compound from example 9 at doses of 0.001, 0.01, and 10 mg/kg) 30 min prior to testing. During the test session, animals were placed into the shock chamber for 10 minutes and their ultrasonic vocalization was recorded. […] Each animal was recorded separately with a Mini-3 Bat Detector (Ultra Sound Advice, London, UK). Ultrasonic vocalizations at 22-kHz consisting of calls with a minimal duration of 300 ms were recorded and analyzed by UltraVox 2.0 program (Noldus, Wageningen, The Netherlands). The total number of vocalization events and their total duration were recorded.

rats [5] = experiment: Prepulse inhibition of the acoustic startle response (sensorimotor gating); assay type: in vivo, rat; conditions: 1 and 10 mg/kg s.c., compound alone

SMILES: CC(=O)[C@H]1CC[C@H]2[C@@H]3CC[C@@H]4C[C@H](OC(=O)[C@@H](N)CCC(=O)O)CC[C@]4(C)[C@H]3CC[C@]12C [Example 9, 20-Oxo-5β-pregnan-3α-yl L-glutamyl 1-ester]
- MK-801-induced deficit in number of errors in AAPA (rats [1]; Example 9 0.001, 0.01, 0.1 and 10 mg/kg + MK-801 0.1 mg/kg): reversed this deficits at all doses
- locomotion activity in AAPA (total distance) (rats [1]; Example 9 0.001, 0.01 and 0.1 mg/kg + MK-801 0.1 mg/kg): showed neither increase nor decrease of locomotion activity
- MK-801-induced deficit in maximum time of avoidance in AAPA (rats [1]; Example 9 0.001, 0.01 and 10 mg/kg + MK-801 0.1 mg/kg): reversed this deficit
- locomotion activity in AAPA (total distance) (rats [1]; Example 9 10 mg/kg + MK-801 0.1 mg/kg): increased locomotor activity compared to controls
- action on the neuropathic pain model (Neuropathic pain model): Beneficial action
- NMDA-induced damage in caudatoputamen and thalamic nuclei (histology) (rats [2]): Alleviation, but not elimination of damage
- NMDA-induced damage in neocortex (histology) (rats [2]): pronounced cessation of damage in the whole neocortex
- NMDA-induced damage to the hippocampus (histology) (rats [2]; dentate gyrus, Cornu ammonis fields, subiculum): significant decrease of NMDA-induced damage to the hippocampus
- anxiolytic effect in elevated plus maze (rats [3]; 0.001, 0.01 and 10 mg/kg i.p.): pronounced dose-dependent anxiolytic effect
- number of entries into open arms (rats [3]; 10 mg/kg i.p., p<0.05 vs control): significant increase of number of entries into open arms
- anxiolytic effect, ultrasonic vocalization (rats [4]; 0.001, 0.01 and 10 mg/kg i.p., 30 min prior to testing): slight dose-dependent anxiolytic effect
- total duration of ultrasonic vocalizations (rats [4]; 10 mg/kg i.p.): Significant difference
- prepulse inhibition of the startle response (rats [5]): none of the doses of the compound from Example 9 significantly altered this parameter
